Data on 12 compounds can be found in patent publication US10772891B2, “Pyrazolo pyridine derivatives as NADPH oxidase inhibitors” (GENKYOTEX SUISSE SA, priority 2008, dated 2020).

The first assay addresses T1, NOX (Homo sapiens, UniProt P04839).
T1 construct: NOX activity as measured by Amplex Red using DMSO-differentiated HL60 cells; endogenous in cells; host or cells: HL-60 cells differentiated to the neutrophil phenotype with Me2SO
T1 sequence (P04839 2-570 limits assumed): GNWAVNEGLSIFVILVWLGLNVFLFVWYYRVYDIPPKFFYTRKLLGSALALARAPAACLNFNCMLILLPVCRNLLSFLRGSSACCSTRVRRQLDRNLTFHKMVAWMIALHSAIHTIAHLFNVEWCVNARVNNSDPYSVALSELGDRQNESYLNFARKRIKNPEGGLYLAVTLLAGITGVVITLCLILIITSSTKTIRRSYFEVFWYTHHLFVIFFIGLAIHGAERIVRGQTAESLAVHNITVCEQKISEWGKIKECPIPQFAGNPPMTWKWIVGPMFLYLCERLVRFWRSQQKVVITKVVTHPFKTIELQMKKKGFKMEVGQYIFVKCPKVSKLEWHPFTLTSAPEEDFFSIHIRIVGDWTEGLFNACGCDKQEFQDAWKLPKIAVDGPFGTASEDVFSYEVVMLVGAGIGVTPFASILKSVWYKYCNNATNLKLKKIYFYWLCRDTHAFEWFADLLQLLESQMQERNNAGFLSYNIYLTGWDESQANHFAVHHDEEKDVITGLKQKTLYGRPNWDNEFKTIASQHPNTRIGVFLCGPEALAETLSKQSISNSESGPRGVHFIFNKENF
T1 sequence (P13498 1-195 partner): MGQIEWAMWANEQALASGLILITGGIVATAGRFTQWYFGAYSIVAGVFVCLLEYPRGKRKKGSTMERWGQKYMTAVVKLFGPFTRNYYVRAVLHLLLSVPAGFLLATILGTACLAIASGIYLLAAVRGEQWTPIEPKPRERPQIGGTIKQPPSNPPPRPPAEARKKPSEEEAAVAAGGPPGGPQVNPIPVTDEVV
Kind of assay: Amplex Red measurement of extracellular hydrogen peroxide (NOX activity) in DMSO-differentiated HL60 cells. Type of assay: cell-based.
Settings: not given
As for the experimental part: Human acute myeloid leukemia cell line HL-60 was cultured in RPMI 1640 (Invitrogen) supplemented with 10% heat-inactivated calf serum, 2 mM glutamine, 100 U/mL penicillin (Sigma), and 100 μg streptomycin (Sigma) at 37° C. under a humidified atmosphere of 5% CO2. HL60 differentiation to the neutrophil phenotype was triggered by adding Me2SO (final concentration 1.25% v/v for 6 days) to the culture medium.
Extracellular hydrogen peroxide was measured using Amplex UltraRed (Molecular Probes). Cells were trypsinized (1× Trypsin-EDTA), collected by centrifugation, and resuspended in HBSS supplemented with 1% glucose. Cells were seeded into black 96-well plates at a density of 50′000 cells in 200 μl testing buffer (HBSS 1% glucose containing 0.005 U/mL horseradish peroxidase (Roche) and 50 μM Amplex Red in the presence or absence of compounds according to the invention. As a control, DPI was included at a final concentration of 10 μM The plates were placed in the fluorescent Optima Fluorescent plate reader and kept at 37° C. during 20 min. Fluorescence was measured for 15 min with excitation and emission wavelengths of 544 nm and 590 nm respectively. NOX activities were expressed as % of the activity in control cells. Residual activity of DPI-treated cells was usually <10%. […]
The Table 2 below summarizes the IC50 of NOX activity as measured by Amplex Red using DMSO-differentiated HL60 cells as described above: […]
On to `Cc1c2c(=O)n(-c3cccc(Cl)c3)[nH]c2cc(=O)n1CCCC(=O)N1CCN(C)CC1` [Compound 28, 2-(3-chlorophenyl)-4-methyl-5-[4-(4-methylpiperazin-1-yl)-4-oxobutyl]-1H-pyrazolo[4,3-c]pyridine-3,6(2H,5H)-dione], for which the IC50 is less than 5 µM.
`Cc1c2c(=O)n(-c3ccccc3F)[nH]c2cc(=O)n1Cc1cccc(N2CCOCC2)n1` [Compound 20, 2-(2-fluorophenyl)-4-methyl-5-[(6-morpholin-4-ylpyridin-2-yl)methyl]-1H-pyrazolo[4,3-c]pyridine-3,6(2H,5H)-dione] gave an IC50 of less than 5 µM.
The same measure, in the same setting: next, `Cc1c2c(=O)n(-c3nc(-c4ccccc4)cs3)[nH]c2cc(=O)n1Cc1cccc(Oc2ccccc2)c1` [Compound 10, 4-methyl-5-(3-phenoxybenzyl)-2-(4-phenyl-1,3-thiazol-2-yl)-1H-pyrazolo[4,3-c]pyridine-3,6(2H,5H)-dione]: less than 5 µM.
Still for that read-out and setting: next, `Cc1c2c(=O)n(-c3ccccc3F)[nH]c2cc(=O)n1CC(=O)NCc1ccccn1` [Compound 30, 2-[2-(2-fluorophenyl)-4-methyl-3,6-dioxo-1,2,3,6-tetra hydro-5H-pyrazolo[4,3-c]pyridin-5-yl]-N-(pyridin-2-ylmethyl)acetamide]: less than 5 µM.
`Cc1c2c(=O)n(-c3ccccc3Cl)[nH]c2cc(=O)n1CC(c1ccccc1)N1CCOCC1` (centres unmarked) [Compound 3, 2-(2-chlorophenyl)-4-methyl-5-(2-morpholin-4-yl-2-phenylethyl)-1H-pyrazolo[4,3-c]pyridine-3,6(2H,5H)-dione]: the 50% inhibitory concentration (IC50) is less than 5 µM.
With `Cc1c2c(=O)n(-c3ccccc3Cl)[nH]c2cc(=O)n1Cc1ccccc1N1CCOCC1` [Compound 1, 2-(2-chlorophenyl)-4-methyl-5-(2-morpholin-4-ylbenzyl)-1H-pyrazolo[4,3-c]pyridine-3,6(2H,5H)-dione], the IC50 was less than 5 µM.
As to `Cc1c2c(=O)n(-c3ccccc3Cl)[nH]c2cc(=O)n1C` [Compound 8, 2-(2-chlorophenyl)-4,5-dimethyl-1H-pyrazolo[4,3-c]pyridine-3,6(2H,5H)-dione], the half-inhibitory concentration (IC50) was less than 5 µM.
Turning to `Cc1c2c(=O)n(-c3ccccc3Cl)[nH]c2cc(=O)n1NC(=O)COc1ccc(F)cc1` [Compound 13, N-[2-(2-chlorophenyl)-4-methyl-3,6-dioxo-1,2,3,6-tetra hydro-5H-pyrazolo[4,3-c]pyridin-5-yl]-2-(4-fluorophenoxy)acetamide], the IC50 is less than 5 µM.
The same measure, in the same setting: the same measure for `CCOCCCn1c(C)c2c(=O)n(-c3nc(-c4ccccc4)cs3)[nH]c2cc1=O` [Compound 7, 5-(3-ethoxypropyl)-4-methyl-2-(4-phenyl-1,3-thiazol-2-yl)-1H-pyrazolo[4,3-c]pyridine-3,6(2H,5H)-dione]: less than 5 µM; for `Cc1c2c(=O)n(-c3ccccc3Cl)[nH]c2cc(=O)n1Cc1ccc(CN2CCN(C)CC2)cc1` [Compound 2, 2-(2-chlorophenyl)-4-methyl-5-{4-[(4-methylpiperazin-1-yl)methyl]benzyl}-1H-pyrazolo[4,3-c]pyridine-3,6(2H,5H)-dione]: less than 5 µM; for `COc1cccc(CCn2c(C)c3c(=O)n(-c4ccccc4Cl)[nH]c3cc2=O)c1` [Compound 4, 2-(2-chlorophenyl)-5-[2-(3-methoxyphenyl)ethyl]-4-methyl-1H-pyrazolo[4,3-c]pyridine-3,6(2H,5H)-dione]: less than 5 µM.

The next assay relates to NOX. Kind of assay: H2DCF-DA fluorescence in TGF-β stimulated HUVEC. It counts as cell-based, human. Particulars: % of the activity in control cells, 'usually'. As for the experimental part: HUVEC are cultured in endothelial basal medium supplemented with hydrocortisone (1 μg/mL, CalBioChem), bovine brain extract (12 μg/mL), gentamicin (50 μg/mL, CalBioChem), amphotericin B (50 ng/mL, CalBioChem EGF (10 ng/mL, and 10% FCS until the fourth passage. When the fifth passage was started, cells were cultured with a lower concentration of FCS (2%) in the absence of EGF, if not indicated otherwise. All experiments were done with cells of the fifth passage. The cells were incubated with OxLDL (oxidized low-density lipoprotein) or its buffer as control for 24 h, before detection of 02 formation.
HUVEC were plated on coverslips and made quiescent overnight in 0.5% BSA before stimulation with TGF-β. Cells were loaded for 10 minutes with 5 μM CM-H2DCFDA in phenol-red-free medium in the dark and then treated with TGF-β (R&D Systems) in the presence or absence of compounds according to the invention. Cells were then visualized by immunofluorescence microscopy after fixation and staining of the nuclei with DAPI or examined live using confocal microscopy. DCF fluorescence was visualized at an excitation wavelength of 488 nm and emission at 515 to 540 nm. […] For calculation, the absorbance at […] was normalized to absorbance at […] for each individual well. […] NOX activities were expressed as % of the activity in control cells. […]
Turning to `c1ccc([I+]c2ccccc2)cc1` [DPI, Diphenyl-iodonium], the “Residual activity of DPI-treated cells” value is given as less than 10%.

Another assay has as its system NOX. Kind of assay: Chemiluminescence (Luminol) ROS measurement in cells. It counts as cell-based, human. Particulars: % of the activity in control cells, 'usually'. As for the experimental part:
ROS was measured using the chemiluminescent probe luminol. Cells were cultured and plated as for Amplex Red except that the Amplex Red agent was replaced by 10 μg/mL luminol (Sigma 09235). Light emission was recorded continuously at 37° C. for 60 minutes using the luminescence function of the FluoStar Optima fluorescent plate reader. The mean of the four blank values was subtracted from each corrected value for each time point. NOX activities were expressed as % of the activity in control cells. Residual activity of DPI-treated cells was usually <10%.
`c1ccc([I+]c2ccccc2)cc1` [DPI, Diphenyl-iodonium]: the “Residual activity of DPI-treated cells” value was less than 10%.

The subject of the next assay is NOX. Kind of assay: Nitroblue tetrazolium (NBT) superoxide test in cells. It counts as cell-based, human. As to conditions: DPI 10 μM, % of the activity in control cells, 'usually'. As for the experimental part:
Intracellular and extracellular superoxide was measured by a colorimetric technique using a quantitative nitroblue tetrazolium (NBT) test. SOD-inhibitable conversion of NBT to formazan, a fine blue precipitate, in the presence of superoxide anion was measured using Fluostar Optima spectrometer (BMG labtech). Following incubation with appropriate stimuli, cells were trypsinized (1× Trypsin-EDTA), collected by centrifugation, and washed with PBS to remove medium. 5×10^5 cells were plated on 48-well plates and incubated in Hank's balanced salt solution containing 0.5 mg/mL NBT with or without 800 U/mL SOD in the presence or absence of compounds according to the invention. As a control, DPI was included at a final concentration of 10 μM. After 2.5 h, cells were fixed and washed with methanol to remove non reduced NBT. The reduced formazan was then dissolved in 230 μl of 2M potassium hydroxide and in 280 μl of dimethylsulfoxide. The absorption was measured at 630 nm. For calculation, the absorbance at 630 nm was normalized for each individual well. The mean of the four blank values was subtracted from each corrected value for each time point. NOX activities were expressed as % of the activity in control cells. Residual activity of DPI-treated cells was usually <10%.
Regarding `c1ccc([I+]c2ccccc2)cc1` [DPI, Diphenyl-iodonium], the “Residual activity of DPI-treated cells” value was less than 10%.
